Results as given in PMC10434283, “A Novel Two-Component Bacteriocin, Acidicin P, and Its Key Residues for Inhibiting Listeria monocytogenes by Targeting the Cell Membrane” (Microbiology Spectrum, 2023).

Assays:
L. monocytogenes = test: Agar well diffusion assay of the mutations; assay type: cell-based, Listeria monocytogenes; conditions: BHI agar, 10^5 CFU/mL, 40 μL peptide per well, 24 h at 30°C
Source text: (§1) The antimicrobial spectrum was investigated using the indicator strains Streptococcus agalactiae 10465, Listeria monocytogenes 1.10753, enterotoxigenic Escherichia coli K88, vancomycin-resistant Enterococcus faecalis V583, Salmonella enterica serovar Typhimurium 14028, methicillin-resistant Staphylococcus aureus, and Bacillus cereus 1.1846. L. monocytogenes 1.10753 was used for growth curve measurement with a microtiter plate assay system. The indicator (at 1 × 10^5 CFU/mL) and the peptide (at 2-fold dilutions) were added to a final volume of 200 μL in each well. The bacterial growth was monitored with Bioscreen C (OyGrowth Curves Ab Ltd.) at 600 nm at 30°C. The MIC was defined as the total amount of Adpα, Adpβ, and acidicin P (the complementary peptides combined with equal amounts) that inhibited the growth of the indicator strain. The agar well diffusion method was used to investigate the antimicrobial activity of the mutations. The L. monocytogenes was inoculated in a brain heart infusion (BHI) agar plate as an indicator at a concentration of 10^5 CFU/mL. The peptide mutants (40 μL) were added to the wells (5 mm), and the plates were incubated for 24 h at 30°C.

[1] = tested on: Listeria monocytogenes 1.10753; test: MIC by microtiter plate growth curve assay; assay type: cell-based; conditions: for growth rate of L. monocytogenes: peptide individually, at any concentration; for MIC: microtiter growth curve, 1 × 10^5 CFU/mL, 30°C, 600 nm
Source text: as §1

[2] = tested on: L. monocytogenes cell membrane; test: Cytoplasmic membrane permeability assay with propidium iodide; assay type: cell-based, Listeria monocytogenes; conditions: positive control, 1× MIC
Description: Pretreatment of L. monocytogenes cells for the cytoplasmic membrane permeability assay was similar to that for the PMF assay. The cells were resuspended in 1 mL PBS and treated with different concentrations of acidicin P at 30°C for 30 min. The treated cells were stained with 10 μg/mL propidium iodide (PI, Bioss) in the dark for 15 min. Emission spectra of the mixture were recorded at 615 nm upon excitation at 535 nm with a Synergy H4 device (BioTek).

| Substance | antimicrobial activity compared to the wild type (L. monocytogenes) | other results |
| --- | --- | --- |
| ANKMAYNVGKAISRIMRRVR [R1A (Adpα)-D12A (Adpβ), acidicin P mutant pair] | no detrimental effect | – |
| KKKRGFWYHVGDAVTSFGRGFASAFG [Adpβ, 26-residue mature β peptide of the two-component bacteriocin acidicin P, obtained by solid-phase peptide synthesis] | – | growth rate of L. monocytogenes [1]: not affected; MIC ([1]; ratio α:β 0:1 (Adpβ alone)): / (No antimicrobial activity observed in the range of 1.56 to 200 μg/mL acidicin P) |
| RNKMAYAVGKAISAIMRRVR [N7A//R14A (Adpα)-D12A//S16A//R19A (Adpβ), acidicin P mutant pair: Adpα N7A, R14A with Adpβ D12A, S16A, R19A] | significantly decreased | – |
| RNKMAYAVGKAISRIMRRVR [N7A (Adpα)-S16A//R19A (Adpβ), acidicin P mutant pair: Adpα N7A with Adpβ S16A, R19A] | significantly decreased | – |
| RNKMAYNVGKAISAIMRRVR [R14A (Adpα)-D12A (Adpβ), acidicin P mutant pair: Adpα R14A with Adpβ D12A] | significantly decreased | – |
| RNKMAYNVGKAISRIMRAVR [R18A (Adpα)-K2A (Adpβ), acidicin P mutant pair: Adpα R18A with Adpβ K2A] | no detrimental effect | – |
| RNKMAYNVGKAISRIMRRVR [Adpα, 20-residue mature α peptide of the two-component bacteriocin acidicin P, obtained by solid-phase peptide synthesis] | – | growth rate of L. monocytogenes [1]: not affected; MIC ([1]; ratio α:β 1:0 (Adpα alone)): / (No antimicrobial activity observed in the range of 1.56 to 200 μg/mL acidicin P) |
| RNKMIYNVIKAISRIMRRVR [A5I//G9I (Adpα)-S16I//G20I (Adpβ), acidicin P mutant pair: Adpα A5I, G9I with Adpβ S16I, G20I] | significantly decreased | bactericidal zone (L. monocytogenes): no bactericidal zone was observed |
| nisin | – | PI fluorescence versus untreated cells [2]: higher fluorescence |
